Ends that are not written are not given here.
Experiments:
[1] = tested on: CCR5 tropic HIV-1 variants; test: Infection of TZM-bl cells by R5 tropic HIV-1 variants, GalScreen; format: cell-based
Method: 5000 TZM-bl cells were seeded in 100 μl of DMEM (10% FCS, 100 U/ml of penicillin G and 100 μg/ml of streptomycin sulfate). ALB408-423 was dissolved in PBS (10 mg/ml). One day later, 20 μl serial dilutions of ALB408-423 in PBS were added to cells and cells were subsequently infected with 0.5 ng of p24 antigen HIV-1 in a total volume of 200 μl. HIV-1 molecular clones differing in coreceptor tropism were used and generated as described (Papkalla et al., J. Virol. 76: 8455-9, 2002).
FIG. 3: Chemically synthesized ALB408-423 specifically blocks X4 tropic HIV-1 infection. TZM-bl cells containing indicated dilutions of peptide were infected with HIV-1 variants differing in their coreceptor tropism. 3 days later Gal Screen assay was used to measure infection rates. […] B) Infection rates in the presence of 500 μg/ml ALB408-423 showing that the peptide specifically blocks X4 but not R5 tropic HIV-1 infection. Data shown are mean values±standard deviation derived from triplicate infections relative to PBS containing cells (100% infection).
After 3 days, infection was detected using GalScreen assay (TROPIX) (example 1). […] In contrast, CCR5 tropic HIV-1 variants were not inhibited even in the presence of very high doses of ALB408-423 (500 μg/ml) (FIG. 3B). Due to the specific inhibition of the infection caused by X4-tropic HIV-1 variants, it is to be assumed that ALB408-423 interacts with the chemokine receptor CXCR4.
Virus stocks were first titrated on TZM-bl cells. Then TZM-bl cells containing 100 μM of peptides were infected with infectivity normalized amounts of X4, dualtropic (X4/R5) or R5 tropic HIV-1.
FIG. 10. ALB408-423 and truncated ALB derivatives specifically block X4 tropic HIV-1 infection. TZM-bl cells either containing PBS or 100 μM of indicated peptides were infected with normalized infectivities of X4, dualtropic or R5 tropic HIV-1 clones. Infection rates were measured 2 days post infection using the GalScreen assay. Shown are mean values (% of PBS treated control)±standard deviations derived from triplicate measurements.

[2] = tested on: Jurkat T cells expressing CXCR4; test: CXCL12 mediated migration of Jurkat T cells, transwell; format: cell-based; settings: 360 μg/ml, 2 h
Method: CXCL12-CXCR4 signaling plays a crucial role in several diseases such as HIV/AIDS, cancer, leukemia and arthritis. CXCL12 expressing organs, tissues or cells can attract CXCR4 expressing tumor cells and allow metastasis. To investigate whether ALB408-423 is able to inhibit CXCL12 mediated tumor cell migration, migration assays were performed using Jurkat T cells expressing CXCR4 as model system (Princen et al., 2004, J.Virol. 78: 12996-13006). Jurkat T cells were suspended at 0.4×106 (200 μl) in medium containing 10% FBS, then the cell suspension (200 μl) was added to the upper compartment of 5 μm pore filter devices (Transwell, 24-well cell culture, Costar). Then, 600?l culture medium with or without CXCL12 (100 ng/ml) was added to the lower compartment allowing attraction of cells from the upper compartment. […] After incubation, plates were removed and 100 μl of cells that migrated to the lower compartment were either counted directly using a counting chamber or analyzed using a proliferation assay (CellTiter-Glo® Reagent, PROMEGA) as recommended by the manufacturer. […]
FIG. 16. […] After 2 hrs incubation at 37° C., the number of migrated cells in the lower compartment was detected by measuring intracellular ATP levels using CellTiter-Glo® Luminescent Cell Viability Assay kit (PROMEGA). […]

For “LVRYTKKVPQVSTPTL [ALB408-423, LVRYTKKVPQVSTPTL]”, which “effect on R5 tropic HIV-1 infection” value ([1]; 100 μM peptide) is on record?
Its value is “no effect”.

What about the “inhibition of CCR5 tropic HIV-1 variants” value ([1]; 500 μg/ml) of the same sequence?
The value was “not inhibited”.

And the “block of CXCL12 induced cell migration” value [2]?
Its value is “almost completely”.

Source: patent publication US9045563B2, “CXC chemokine receptor 4 (CXCR4) antagonistic polypeptide” (priority 2007, dated 2015)
